Drawing on patent publication US7105679B2, “Heteroatom containing tetracyclic derivatives as selective estrogen receptor modulators” (priority 2001, dated 2006), this text covers IC50 and EC50 for 21 molecules.

For assay [1], the system named is Ishikawa cells. The experiment in a line: Alkaline Phosphatase Assay in Human Endometrial Ishikawa Cells (agonist and antagonist mode). Type of assay: cell-based. The following applies: number in brackets = number of tests, NA = no detected activity at test concentration; for IC50: antagonist mode with 10 nM 17β-estradiol; for EC50: agonist mode. The procedure:
This assay was run according to the procedure described by Albert et a., Cancer Res, […], 50(11), 330-6-10, with minor modification.
Ishikawa cells (from ATCC) were maintained in DMEM/F12 (1:1) phenol red free medium (Gibco) supplemented with 10% calf serum (Hyclone). 24 hours prior to testing, the medium was changed to DMEM/F12 (1:1) phenol red free containing 2% calf serum.
Compounds to be tested in the agonist mode were added to the culture media at varying concentrations. Compounds to be treated in the antagonist mode were prepared similarly, and 10 nM 17β-estradiol was also added to the culture media. The cells were then incubated at 37° C. for 3 days. On the fourth day, the media was remove, 1 volume of 1× Dilution Buffer (Clontech) was added to the well followed by addition of 1 volume of Assay Buffer (Clontech). The cells were then incubated at room temperature for 5 minutes. […] The cells were incubated at room temperature for 10 minutes and then quantified on a luminometer. The increase of chemiluminescence over vehicle control was used to calculate the increase in alkaline phosphatase activity.

Assay [2] has as its system MCF-7 cells. The experiment in a line: MCF-7 Cell Proliferation Assay (14C-thymidine, agonist and antagonist mode). It counts as cell-based. To be noted: number in brackets = number of tests, NA = no detected activity at test concentration. The procedure:
This assay was run according to the procedure described by Welshons, et al., (Breast Cancer Res. Treat., 1987, 10(2), 169-75), with minor modification.
Briefly, MCF-7 cells (from Dr. C. Jordan, Northwestern University) were maintained in RPMI 1640 phenol red free medium (Gibco) in 10% FBS (Hyclone), supplemented with bovine insulin and non-essential amino acid (Sigma). The cells were initially treated with 4-hydoxyltamoxifen (10^−8 M) and let stand at 37° C. for 24 hours. Following this incubation with tamoxifen, the cells were treated with compounds at various concentrations.
Compounds to be tested in the agonist mode were added to the culture media at varying concentrations. Compounds to be treated in the antagonist mode were prepared similarly, and 10 nM 17β-estradiol was also added to the culture media. The cells were incubated for 24 hours at 37° C. Following this incubation, 0.1 μCi of ^14C-thymidine (56 mCi/mmol, Amersham) was added to the culture media and the cells were incubated for an additional 24 hours at 37° C. The cells were then washed twice with Hank's buffered salt solution (HBSS) (Gibco) and counted with a scintillation counter. The increase in the ^14C-thymidine in the compound treated cells relative to the vehicle control cells were reported as percent increase in cell proliferation.

The target of assay [3] is T1, human estrogen receptor α (Homo sapiens, UniProt P03372).
T1 construct: purchased Panvera
T1 sequence (P03372 1-595): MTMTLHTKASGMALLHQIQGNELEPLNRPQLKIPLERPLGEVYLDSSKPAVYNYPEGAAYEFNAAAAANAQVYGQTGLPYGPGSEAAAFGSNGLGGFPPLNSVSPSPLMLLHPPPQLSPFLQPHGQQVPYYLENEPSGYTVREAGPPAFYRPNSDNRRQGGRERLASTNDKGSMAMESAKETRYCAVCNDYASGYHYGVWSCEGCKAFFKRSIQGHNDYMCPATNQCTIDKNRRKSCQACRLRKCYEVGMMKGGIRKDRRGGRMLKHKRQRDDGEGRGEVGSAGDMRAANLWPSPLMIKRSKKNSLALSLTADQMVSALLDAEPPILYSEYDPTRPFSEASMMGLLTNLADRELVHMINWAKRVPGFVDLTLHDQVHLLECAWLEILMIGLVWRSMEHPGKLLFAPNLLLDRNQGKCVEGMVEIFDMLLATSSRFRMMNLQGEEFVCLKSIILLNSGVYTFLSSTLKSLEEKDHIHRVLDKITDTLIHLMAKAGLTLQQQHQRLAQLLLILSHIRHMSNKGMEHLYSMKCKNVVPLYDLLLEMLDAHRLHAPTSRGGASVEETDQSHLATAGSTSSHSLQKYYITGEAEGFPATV
Nature of the assay: Estrogen Receptor α Flash Plate Assay (binding of radiolabeled estrogen). To be noted: flash plate binding, 0.5 nM radiolabeled estrogen; number in brackets = No. of determinations; NA = no detected activity at test concentration; read-out: Estrogen Receptor α in μM (No.). The procedure:
This assay monitors binding of radiolabeled estrogen to the estrogen receptor. It is performed on a BioMek 2000 (Beckman). Plates are read in a scintillation counter (Packard TopCount), with decreased counts an indication of binding of a compound to the receptor.
The plate was sealed and incubated at 4° C. overnight.
On day two, each well was washed three times with 200 μL PBS, pH 7.2, at room temperature. To each well was then added 98 μL radiolabeled estrogen (0.5 nM, which equals 6 nCi for a 120 Ci/mmol batch, Amersham), diluted in ESB and 5 mM dithiothreitol (DTT). To individual wells were then added 2.5 μL test compound diluted in 30% (v/v) dimethyl sulfoxide/50 mM HEPES, pH 7.5. The wells were mixed three times by aspiration, the plate sealed and incubated at room temperature for one hour. The wells were then counted for 1 min in a TopCount scintillation counter (Packard).

[4] abbreviates: antagonist mode with 10 nM 17β-estradiol.
Where [5] appears, read: Homo sapiens, MCF7, agonist mode.
Where [6] appears, read: Homo sapiens, MCF7, antagonist mode with 10 nM 17β-estradiol.

Each structure is given as a SMILES string. Some results are limits rather than exact numbers.

Turning to `OCCCOc1ccc(C2Oc3cc(O)ccc3C3=C2c2ccc(O)cc2OCC3)cc1` (racemic) [Compound 183], the IC50 was 3000 nM in assay [1], at least 10000 nM in assay [2] (setting [4]) and 0.014 µM in assay [3].

In the case of `COC(=O)COc1ccc(C2Oc3cc(O)ccc3C3=C2c2ccc(O)cc2OCC3)cc1` (racemic) [Compound 190], the IC50 in assay [1] is above 10000 nM; in assay [2] (setting [4]), above 10000 nM; in assay [3], 0.0089 µM.

By EC50 is commonly meant the concentration needed to bring the measured effect to its halfway point. Read a low EC50 as an effect from little substance. For `CC(C)(C)C(=O)Oc1ccc2c(c1)OC(c1ccc(OCCN3CCCCC3)cc1)C1=C2COc2cc(OC(=O)C(C)(C)C)ccc21` (single isomer, unassigned) [Compound 24], the EC50 in assay [1] and in assay [2] (agonist mode) was above 10000 nM in each case. The IC50 in assay [1] was 66 nM; in assay [2] (setting [4]), 672 nM; in assay [3] it was 5.95 µM.

With `CC(C)(C)C(=O)Oc1ccc2c(c1)OC(c1ccc(OCCN3CCCCC3)cc1)C1=C2COc2cc(OC(=O)C(C)(C)C)ccc21` (single isomer, unassigned) [Compound 25], the EC50 in assay [1] and in assay [2] (agonist mode) was above 10000 nM in each case. The results for the IC50 in assay [1], in assay [2] (setting [4]) and in assay [3] were 235 nM, 1390 nM and 1.2 µM, respectively.

On to `CC(C)(C)C(=O)Oc1ccc2c(c1)OC(c1ccc(OCCN3CCCCC3)cc1)C1=C2COc2cc(O)ccc21` (single isomer, unassigned) [Compound 89, 2,2-Dimethyl-propionic acid 8-hydroxy-11S*-(+)-[4-(2-piperidin-1-yl-ethoxy)-phenyl]-5,11-dihydro-chromeno[4,3-c]chromen-2-yl ester], for which the IC50 in assay [1] was 10 nM; in assay [2] (setting [4]), 845 nM; in assay [3], above 1 µM.

For `CC(C)(C)C(=O)Oc1ccc2c(c1)OCC1=C2C(c2ccc(OCCN3CCCCC3)cc2)Oc2cc(O)ccc21` (single isomer, unassigned) [Compound 90, 2,2-Dimethyl-propionic acid 8-hydroxy-5S*(+)-[4-(2-piperidin-1-yl-ethoxy)-phenyl]-5,11-dihydro-chromeno[4,3-c]chromen-2-yl ester], the results for the IC50 in assay [1], in assay [2] (setting [4]) and in assay [3] were 57 nM, 1670 nM and 0.0066 µM, respectively.

As to `Oc1ccc2c(c1)OC(c1ccc(OCCN3CCCCC3)cc1)C1=C2CCOc2cc(O)ccc21` (single isomer, unassigned) [Compound 99, 5R*-(+)-[4-(2-Piperidin-1-yl-ethoxy)-phenyl]-11,12-dihydro-5H-6,13-dioxa-benzo[3,4]cyclohepta[1,2-a]naphthalene-2,8-diol], the IC50 turned out to be 130 nM in assay [1], 182 nM in assay [2] (setting [4]) and 0.0039 µM in assay [3].

Consider `Oc1ccc2c(c1)OC(c1ccc(OCCN3CCCCC3)cc1)C1=C2CCCOc2cc(O)ccc21` (single isomer, unassigned) [Compound 125], for which the IC50 in assay [1] turned out to be 1620 nM; in assay [2] (setting [4]) it was 4700 nM.

As to `Oc1ccc2c(c1)OC(c1ccc(OCCN3CCCCC3)cc1)C1=C2CCCOc2cc(O)ccc21` (single isomer, unassigned) [Compound 126], the results for the IC50 in assay [1] and in assay [2] (setting [4]) were 78 nM and 245 nM, respectively.

With `CN(C)CCOc1ccc(C2Oc3ccccc3C3=C2c2ccc(O)cc2OCC3)cc1` (single isomer, unassigned) [Compound 150], the IC50 was 850 nM in assay [1] and 2940 nM in assay [2] (setting [4]).

For `CN(C)CCOc1ccc(C2Oc3ccccc3C3=C2c2ccc(O)cc2OCC3)cc1` (single isomer, unassigned) [Compound 151], the IC50 came out at 605 nM in assay [1] and 2760 nM in assay [2] (setting [4]).

On to `CN(C)CCOc1ccc(C2Oc3cc(O)ccc3C3=C2c2ccc(O)cc2OCC3)cc1` (single isomer, unassigned) [Compound 163], for which the IC50 in assay [1] came out at 405 nM; in assay [2] (setting [4]), 687 nM.

As for `CN(C)CCOc1ccc(C2Oc3cc(O)ccc3C3=C2c2ccc(O)cc2OCC3)cc1` (single isomer, unassigned) [Compound 164], the IC50 in assay [1] was 61 nM; in assay [2] (setting [4]), 293 nM.

`Oc1ccc2c(c1)OC(c1ccc(OCCN3CCCCCC3)cc1)C1=C2CCOc2cc(O)ccc21` (single isomer, unassigned) [Compound 165]: the IC50 in assay [1] amounted to 128 nM.

Consider `Oc1ccc2c(c1)OC(c1ccc(OCCN3CCCCCC3)cc1)C1=C2CCOc2cc(O)ccc21` (single isomer, unassigned) [Compound 166], for which the IC50 in assay [1] was found to be 41 nM.

Turning to `COc1ccc2c(c1)O[C@@H](c1ccc(OCCN3CCCCC3)cc1)C1=C2COc2cc(O)ccc21` (single isomer, unassigned) [Compound 176, 8-Methoxy-5S-[4-(2-piperidin-1-yl-ethoxy)-phenyl]-5,11-dihydro-chromeno[4,3-c]chromen-2-ol], the IC50 in assay [3] is 0.024 µM.

As to `CC(C)(C)C(=O)Oc1ccc2c(c1)OC(c1ccc(OCCN3CCCCC3)cc1)C1=C2CCOc2cc(OC(=O)C(C)(C)C)ccc21` (single isomer, unassigned) [Compound 179], the IC50 stood at 9 nM in assay [1] and 1870 nM in assay [2] (setting [4]).

Regarding `CC(C)(C)C(=O)Oc1ccc2c(c1)OC(c1ccc(OCCN3CCCCC3)cc1)C1=C2CCOc2cc(OC(=O)C(C)(C)C)ccc21` (single isomer, unassigned) [Compound 180], the IC50 worked out at 0.9 nM in assay [1] and 655 nM in assay [2] (setting [4]).

With `COC1Oc2cc(OC(=O)C(C)(C)C)ccc2C2=C1c1ccc(OC(=O)C(C)(C)C)cc1OC2c1ccc(OCCN2CCCCC2)cc1` (centres unmarked) [Compound 27], in assay [3], the IC50 was 0.69 µM.

In the case of `CC(C)(C)C(=O)Oc1ccc2c(c1)OC(C)(c1ccc(OCCN3CCCC3)cc1)C1=C2COc2cc(OC(=O)C(C)(C)C)ccc21` (centres unmarked) [Compound 30, 2,2-Dimethyl-propionic acid, 8-(2,2-dimethyl-propionyloxy)-5-methyl-5-[4-(2-pyrrolidin-1-yl-ethoxy)-phenyl]-5,11-dihydro-chromeno[4,3-c]chromen-2-yl ester], the half-maximal effective concentration (EC50) in assay [1] (Homo sapiens) and in assay [2] (setting [5]) was above 10000 nM in each case. The IC50 in assay [1] (Homo sapiens) amounted to 630 nM; in assay [2] (setting [6]) it was 2200 nM.

For `CC(C)(C)C(=O)Oc1ccc2c(c1)OC(C)(c1ccc(OCCN3CCCCCC3)cc1)C1=C2COc2cc(OC(=O)C(C)(C)C)ccc21` (centres unmarked) [Compound 33, 11-[4-(2-azepan-1-yl-ethoxy)-phenyl]-8-(2,2-dimethyl-propionyloxy)-11-methyl-5,11-dihydro-chromeno[4,3-c]chromen-2-yl ester], the EC50 in assay [1] (Homo sapiens) and in assay [2] (setting [5]) was above 10000 nM throughout. For the same molecule, the figures for the IC50 in assay [1] (Homo sapiens) and in assay [2] (setting [6]) were 1000 nM and 4800 nM, respectively.
